Measurements: patent publication US6469013B2, “Therapeutic compounds” (Parker Hughes Institute, priority 1998, dated 2002)
Where two headings read alike, the source gives them in different places.

Legend:
[1] = biological target: T1, human JAK3 (Homo sapiens, UniProt P52333); test: JAK3 immune complex kinase assay (JAK3 immunoprecipitated from KL2 EBV-transformed B cell line); format: biochemical; conditions: JAK3 kinase assay, KL2 cell-derived human JAK3; read-out: IC50
T1 sequence (P52333 1-1124): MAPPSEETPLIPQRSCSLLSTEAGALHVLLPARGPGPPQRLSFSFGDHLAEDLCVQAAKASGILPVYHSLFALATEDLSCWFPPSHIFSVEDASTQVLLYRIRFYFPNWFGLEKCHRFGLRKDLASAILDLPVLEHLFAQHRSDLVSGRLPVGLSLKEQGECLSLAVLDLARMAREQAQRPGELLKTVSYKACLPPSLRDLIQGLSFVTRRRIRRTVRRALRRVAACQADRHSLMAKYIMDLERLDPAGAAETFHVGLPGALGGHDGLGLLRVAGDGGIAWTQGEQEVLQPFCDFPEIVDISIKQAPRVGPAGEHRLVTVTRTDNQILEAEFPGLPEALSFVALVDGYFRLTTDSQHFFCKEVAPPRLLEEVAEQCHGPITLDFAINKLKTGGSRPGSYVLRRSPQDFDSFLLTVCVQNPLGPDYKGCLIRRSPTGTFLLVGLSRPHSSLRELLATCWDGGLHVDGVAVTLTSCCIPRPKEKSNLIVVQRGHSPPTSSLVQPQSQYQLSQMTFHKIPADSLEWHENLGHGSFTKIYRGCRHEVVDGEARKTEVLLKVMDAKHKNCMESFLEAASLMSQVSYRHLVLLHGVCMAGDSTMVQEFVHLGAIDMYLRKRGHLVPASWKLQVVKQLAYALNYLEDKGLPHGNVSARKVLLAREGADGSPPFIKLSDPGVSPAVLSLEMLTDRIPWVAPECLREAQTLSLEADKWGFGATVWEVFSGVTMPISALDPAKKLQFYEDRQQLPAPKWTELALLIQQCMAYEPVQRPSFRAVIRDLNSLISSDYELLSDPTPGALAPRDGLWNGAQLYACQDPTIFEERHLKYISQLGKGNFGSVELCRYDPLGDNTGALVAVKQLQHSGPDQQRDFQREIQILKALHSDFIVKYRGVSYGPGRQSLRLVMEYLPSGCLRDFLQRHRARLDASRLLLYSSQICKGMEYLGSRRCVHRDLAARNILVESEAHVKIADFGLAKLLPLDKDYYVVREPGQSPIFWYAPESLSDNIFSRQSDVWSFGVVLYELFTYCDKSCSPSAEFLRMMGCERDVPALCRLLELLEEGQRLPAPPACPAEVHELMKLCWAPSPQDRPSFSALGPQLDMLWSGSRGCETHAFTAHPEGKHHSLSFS
Procedure: In JAK3 immune complex kinase assays (17, 22), KL-2 EBV-transformed human lymphoblastoid B cells (native JAK3 kinase assays) or insect ovary cells (recombinant JAK3 kinase assays) were lysed with NP-40 lysis buffer (50 mM Tris, pH 8, 150 mM NaCl, 5 mM EDTA, 1% NP-40, 100 μM sodium orthovanadate, 100 μM sodium molybdate, 8 μg/ml aprotinin, 5 μg/ml leupeptin, and 500 μM PMSF) and centrifuged 10 min at 13000× g to remove insoluble material. Samples were immunoprecipitated with antisera prepared against JAK3. The antisera were diluted and immune complexes collected by incubation with 15 μl protein A Sepharose. After 4 washes with NP-40 lysis buffer, the protein A Sepharose beads were washed once in kinase buffer (20 mM MOPS, pH7, 10 mM MgCl2) and resuspended in the same buffer. Reactions were initiated by the addition of 25 μCi [γ^32P] ATP (5000 Ci/mMole) and unlabeled ATP to a final concentration of 5 μM. Reactions were terminated by boiling for 4 min in SDS sample buffer. Samples were run on 9.5% SDS polyacrylamide gels and labeled proteins were detected by autoradiography. Following electrophoresis, kinase gels were dried onto Whatman 3M filter paper and subjected to phosphorimaging on a Molecular Imager (Bio-Rad, Hercules, Calif.) as well as autoradiography on film. For each drug concentration, a kinase activity index (KA) was determined by comparing the kinase activity in phosphorimager units (PIU) to that of the baseline sample. In some experiments, cold kinase assays were performed, as described by (Uckun, F. M., et al., Clin. Can. Res. 4: 901-912, 1998).
We first used immune complex kinase assays to compare the effects of the synthesized dimethoxyquinazoline compounds on the enzymatic activity of human JAK3 immunoprecipitated from the KL2 EBV-transformed human lymphoblastoid B cell line.

[2] = test system: NALM-6 (pre-B ALL); test: Methylcellulose clonogenic assay; format: cell-based, human
Procedure: The antileukemic activity of compound 6 against clonogenic tumor cells was examined using a methylcellulose colony assay system (Uckun, F. M., et al., J. Exp. Med. 163: 347-368, 1986; Messinger, Y., et al., Clin Cancer Res. 4: 165-70, 1998). In brief, cells (10^5/ml in RPMI-10% FBS) were treated overnight at 37° C. with compound 6 at varying concentrations. After treatment, cells were washed twice, plated at 10^4 or 10^5 cells/ml in RPMI-10% FMS-0.9% methylcellulose in Petri dishes, and cultured for 7 days at 37° C. in a humidified 5% CO2 incubator. Subsequently, leukemic cell (or tumor cell) colonies were enumerated using an inverted phase-contrast microscope. The percent inhibition of colony formation was calculated using the following formula:
% Inhibition=1−mean number of colonies in test culture×100 mean number of colonies in control culture

[3] = test system: C57BL/6 male mice; test: Low-dose streptozotocin (LDSTZ) diabetes model; format: in vivo, mouse; conditions: 100 mg/kg daily i.p.
Procedure: C57BL/6 male mice or JAK3-deficient and WT mice (8-10-wk-old) were injected intraperitoneally with low-dose (40 mg/kg ) of STZ (Sigma, St Louis, Mo.) daily for 5 consecutive days, for induction of autoimmune experimental diabetes (LDSTZ). STZ was dissolved in citrate buffer pH 4.0 on ice, and injected within 10 min of preparation. Mice were monitored for diabetes development by testing blood glucose from the second week (day 7) after the STZ administrations by One Touch Profile diabetes tracking system (Lifescan, Milpitas, Calif.). Mice with glycemia over 220 mg/dl on three consecutive tests were considered diabetic, with the first detection of chronic glycemia taken as the date of diabetes onset. A group of C57BL/6 males was treated with WHI-P131-100 mg/kg/day, i.p., devided in two equal doses, from a beggining of the experiment till day 25.

COc1cc2ncnc(Nc3ccc(O)cc3)c2cc1OC [WHI-P131, 4-(4′-hydroxyl-phenyl)-amino-6,7-dimethoxyquinazoline] was tested, and the IC50 [1] was 9.1 µM, the inhibition at 100 µM ([2]; Homo sapiens, NALM-6, 100 μM, 'these leukemia cell lines', read-out: inhibition of in vitro colony formation) was over 99% and the inhibition at 0.1 µM ([2]; Homo sapiens, NALM-6, 0.1 μM) was 0%. For the same compound, the inhibition at 1 µM ([2]; Homo sapiens, NALM-6, 1 μM) was 0%, the inhibition at 10 µM ([2]; Homo sapiens, NALM-6, 10 μM) was 33.2% and the inhibition at 100 µM ([2]; Homo sapiens, NALM-6, 100 μM, read-out: % Inhibition) was over 99.9%. The EC50 ([2]; Homo sapiens, NALM-6 cells, read-out: EC50, inhibition of clonogenic growth) was 24.4 µM, the “Mean No. of Colonies/10^5 Cells” value ([2]; NALM-6, 0.1 μM) was 2970 (2756, 3184) and the “Mean No. of Colonies/10^5 Cells” value ([2]; NALM-6, 1 μM) was 3180 (3080, 3136). For the same compound, the “Mean No. of Colonies/10^5 Cells” value ([2]; NALM-6, 10 μM) was 1932 (1864, 2000), the “Mean No. of Colonies/10^5 Cells” value ([2]; NALM-6, 100 μM) was 2 (2, 2) and the diabetic mice ([3]; day 7 post first STZ injection) was 20%. For the same compound, the diabetic mice ([3]; day 9) was 50% and the diabetic mice ([3]; day 11) was 65%.
